According to patent publication US20240109877A1, “PYRIMIDINES FOR DEGRADING BRUTON'S TYROSINE KINASE” (AbbVie Inc., priority 2022, published 2024):

Molecular target: BTK in mouse bone marrow (Mus musculus (Mouse), UniProt P35991)
Assay: Mouse Bone Marrow Assay (MSD ELISA of BTK degradation in mouse bone marrow)
Format: in vivo
Conditions: female C57BL/6J mice, single dose of Dose A, bone marrow collected after 24 hours, % remaining BTK in vehicle versus treated samples
Procedure: Female C57BL/6J mice (Jackson Laboratories) were used for this study. Compounds or vehicle/control were prepped with EtOH; PEG-400; Phosal 53 MCT (10:30:60, v/v). Four mice were tested per compound or vehicle/control. On Day 1, mice were administered a single dose of Dose A. On Day 2 (after 24 hours), tissue (bone marrow) was collected from one hind leg per mouse.
An MSD (Meso Scale Discovery) ELISA (enzyme-linked immunosorbent assay) based assay was used to determine BTK degradation in mouse bone marrow. The following materials and equipment were used: 10% NP40 solution (nonionic polyoxyethylene surfactant, ThermoFisher, cat no. 28324); protease inhibitor mini tablet (Roche, cat no. 05 892 970 001); PhosphoSTOP™ tablet (Roche, cat no. 04 906 837 001); Pierce™ BCA Protein Assay Kit (Thermofisher, Cat No. 23225); Precellys® 2 mL lysing tube with 2.8 mm beads (VWR, cat no. 10032-756); Bertin Precellys® 24/Cryolys ® cooling system; 96-well MSD streptavidin pre-coated plates (MSD, cat no. L15SA-1); MSD Blocker A (MSD, cat no. R93BA-4); capture antibody, biotinylated BTK mAb (BD Biosciences, cat no. 624008; custom order); primary detection antibody, BTK RpAb (rabbit polyclonal antibody, CST, cat no. 8547S, D3H5 clone); secondary detection antibody, anti-Rabbit-Sulfo-Tag (MSD, cat no. R32AB-1); read Buffer, 4× (MSD, cat no. R92TC-1); recombinant BTK protein (Thermofisher, cat no. PR5442A); MSD Tris Wash Buffer (10×) (MSD, cat no. R61TX-1); PBS (phosphate-buffered saline); deionized water (diH2O); Lysis Buffer [0.2% NP40 in PBS+Protease Inhibitor tablet (1 tablet/10 mL)+PhosphoSTOP tablet (1 tablet/10 mL)]; 3% MSD Blocker A [MSD Blocker A+450 mL diH2O+50 mL]; and 10× MSD Tris Wash Buffer.
Lysis buffer [(PBS+0.2% NP40+PI (protease inhibitor)+PhosphoSTOP)]was prepared and put on ice until it was fully cold. Ice cold lysis buffer […] was added to each Precellys® tube containing beads and bone marrow sample. Sample tubes were transferred into Precellys® machine and homogenized using 5000 rpm -2×20 seconds. The sample lysates were centrifuged at 14,000 rpm for 20 minutes at 4° C. after homogenizing.
The protein concentration was determined using Pierce™ BCA Protein Assay Kit following manufacturer's recommended protocol. The protein normalized working solution was prepared, using 30 μg protein per sample lysate for assay.
A 300 ng/ml working stock solution of recombinant BTK protein in lysis buffer was prepared, and the sample was serially diluted at 3-fold dilution (10-point assay, highest concentration was 300 ng/mL and lowest concentration was 0.015 ng/mL)
MSD plate coating: Coating antibody (biotinylated-BTK mAb) stock solution was prepared at 1 μg/mL in PBS buffer. 50 μL/well capture antibody (Biotinylated BTK mAb) solution was added, and the plates were shaken gently at ambient temperature for two hours. The plates were washed 3 times with 1× MSD Tris Wash Buffer in a plate washer (300 μL/well), and the plates were blocked with 3% MSD Blocker A (150 μL/well). The plates were incubated for an additional 1-2 hours at ambient temperature with gentle shaking. The plates were washed 3 times with 1× MSD wash buffer using plate washer. Bone marrow lysates (30 μg) at a final volume of 50 μL/well were added into the plates. The serially diluted standard samples were added to the same plates at a final volume of 50 μL/well. The plates were incubated overnight at 4° C. with gentle shaking.
The plates were washed three times with 1× MSD wash buffer (prepared from 10× concentration buffer) using plate washer. Primary detection antibody at 50 μL/well was added (BTK RpAb; 1:1000 dilution in 1% MSD Blocker A). The plates were incubated for two hours at ambient temperature with gentle shaking. The plates were washed three times with 1× MSD wash buffer using plate washer. Anti-Rabbit-SULFO-TAG secondary antibodies (50 μl/well) were added, 1:500 diluted in 1% MSD Blocker A, and the plates were incubated for one to two hours at ambient temperature. […]

Sequence of BTK in mouse bone marrow (P35991 whole entry): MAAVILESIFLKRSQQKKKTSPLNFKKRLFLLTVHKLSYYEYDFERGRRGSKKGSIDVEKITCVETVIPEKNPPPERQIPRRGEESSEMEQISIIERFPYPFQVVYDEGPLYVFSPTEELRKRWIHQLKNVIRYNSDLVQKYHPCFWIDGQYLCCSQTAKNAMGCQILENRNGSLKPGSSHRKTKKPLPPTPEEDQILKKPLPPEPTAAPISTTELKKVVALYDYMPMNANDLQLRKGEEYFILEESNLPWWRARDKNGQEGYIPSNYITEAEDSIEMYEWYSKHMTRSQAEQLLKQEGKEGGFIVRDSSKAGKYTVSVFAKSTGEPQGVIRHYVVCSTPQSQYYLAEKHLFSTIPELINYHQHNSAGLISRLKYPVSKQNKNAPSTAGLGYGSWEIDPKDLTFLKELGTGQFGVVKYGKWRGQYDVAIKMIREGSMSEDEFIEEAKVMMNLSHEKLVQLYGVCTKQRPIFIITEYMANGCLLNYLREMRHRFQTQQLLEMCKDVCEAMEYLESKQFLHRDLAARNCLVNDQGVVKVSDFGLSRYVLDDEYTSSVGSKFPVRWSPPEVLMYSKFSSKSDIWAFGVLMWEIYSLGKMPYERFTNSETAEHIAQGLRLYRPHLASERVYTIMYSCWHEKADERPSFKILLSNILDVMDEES

SMILES | Mouse Bone Marrow (%), % remaining BTK [%]
Cc1cc(-c2cc(Nc3ccc(N4CCN(CCc5ccc(N6CCC(=O)NC6=O)cc5)C[C@@H]4C)cn3)ncn2)ccc1[C@@H](C)NC(=O)c1nc(C(C)(C)C)no1 [Example 1, 3-tert-butyl-N-[(1R)-1-{4-[6-({5-[(2S)-4-{2-[4-(2,4-dioxo-1,3-diazinan-1-yl)phenyl]ethyl}-2-methylpiperazin-1-yl]pyridin-2-yl}amino)pyrimidin-4-yl]-2-methylphenyl}ethyl]-1,2,4-oxadiazole-5-carboxamide] | 11
Cc1cc(-c2cc(Nc3ccc(N4CCN(CCc5ccc(N6CCC(=O)NC6=O)cc5)C[C@H]4C)cn3)ncn2)ccc1[C@@H](C)NC(=O)c1nc(C(C)(C)C)no1 [Example 2, 3-tert-butyl-N-[(1R)-1-{4-[6-({5-[(2R)-4-{2-[4-(2,4-dioxo-1,3-diazinan-1-yl)phenyl]ethyl}-2-methylpiperazin-1-yl]pyridin-2-yl}amino)pyrimidin-4-yl]-2-methylphenyl}ethyl]-1,2,4-oxadiazole-5-carboxamide] | 12
Cc1cc(-c2cc(Nc3ccc(N4CCN(CCc5ccc(N6CCC(=O)NC6=O)cc5)CC4)cn3)ncn2)ccc1[C@@H](C)NC(=O)c1nc(C(C)(C)C)no1 [Example 3, 3-tert-butyl-N-{(1R)-1-[4-(6-{[5-(4-{2-[4-(2,4-dioxo-1,3-diazinan-1-yl)phenyl]ethyl}piperazin-1-yl)pyridin-2-yl]amino}pyrimidin-4-yl)-2-methylphenyl]ethyl}-1,2,4-oxadiazole-5-carboxamide] | 22
Cc1cc(-c2cc(Nc3ccc(N4CCN(CCc5ccc(N6CCC(=O)NC6=O)c(F)c5)C[C@@H]4C)cn3)ncn2)ccc1[C@@H](C)NC(=O)c1nc(C(C)(C)C)no1 [Example 4, 3-tert-butyl-N-[(1R)-1-{4-[6-({5-[(2S)-4-{2-[4-(2,4-dioxo-1,3-diazinan-1-yl)-3-fluorophenyl]ethyl}-2-methylpiperazin-1-yl]pyridin-2-yl}amino)pyrimidin-4-yl]-2-methylphenyl}ethyl]-1,2,4-oxadiazole-5-carboxamide] | 13
Cc1cc(-c2cc(Nc3ccc(N4CCN(CCc5ccc(N6CCC(=O)NC6=O)c(F)c5)C[C@H]4C)cn3)ncn2)ccc1[C@@H](C)NC(=O)c1nc(C(C)(C)C)no1 [Example 5, 3-tert-butyl-N-[(1R)-1-{4-[6-({5-[(2R)-4-{2-[4-(2,4-dioxo-1,3-diazinan-1-yl)-3-fluorophenyl]ethyl}-2-methylpiperazin-1-yl]pyridin-2-yl}amino)pyrimidin-4-yl]-2-methylphenyl}ethyl]-1,2,4-oxadiazole-5-carboxamide] | 12
CC[C@H]1CN(CCc2ccc(N3CCC(=O)NC3=O)cc2)CCN1c1ccc(Nc2cc(-c3ccc([C@@H](C)NC(=O)c4nc(C(C)(C)C)no4)c(C)c3)ncn2)nc1 [Example 6, 3-tert-butyl-N-[(1R)-1-{4-[6-({5-[(2S)-4-{2-[4-(2,4-dioxo-1,3-diazinan-1-yl)phenyl]ethyl}-2-ethylpiperazin-1-yl]pyridin-2-yl}amino)pyrimidin-4-yl]-2-methylphenyl}ethyl]-1,2,4-oxadiazole-5-carboxamide] | 19
CC[C@H]1CN(CCc2ccc(N3CCC(=O)NC3=O)c(F)c2)CCN1c1ccc(Nc2cc(-c3ccc([C@@H](C)NC(=O)c4nc(C(C)(C)C)no4)c(C)c3)ncn2)nc1 [Example 7, 3-tert-butyl-N-[(1R)-1-{4-[6-({5-[(2S)-4-{2-[4-(2,4-dioxo-1,3-diazinan-1-yl)-3-fluorophenyl]ethyl}-2-ethylpiperazin-1-yl]pyridin-2-yl}amino)pyrimidin-4-yl]-2-methylphenyl}ethyl]-1,2,4-oxadiazole-5-carboxamide] | 22
CC[C@@H]1CN(CCc2ccc(N3CCC(=O)NC3=O)cc2)CCN1c1ccc(Nc2cc(-c3ccc([C@@H](C)NC(=O)c4nc(C(C)(C)C)no4)c(C)c3)ncn2)nc1 [Example 8, 3-tert-butyl-N-[(1R)-1-{4-[6-({5-[(2R)-4-{2-[4-(2,4-dioxo-1,3-diazinan-1-yl)phenyl]ethyl}-2-ethylpiperazin-1-yl]pyridin-2-yl}amino)pyrimidin-4-yl]-2-methylphenyl}ethyl]-1,2,4-oxadiazole-5-carboxamide] | 30
Cc1cc(-c2cc(Nc3ccc(N4CCN(CCc5ccc(N6CCC(=O)NC6=O)cc5)CC4(C)C)cn3)ncn2)ccc1[C@@H](C)NC(=O)c1nc(C(C)(C)C)no1 [Example 9, 3-tert-butyl-N-{(1R)-1-[4-(6-{[5-(4-{2-[4-(2,4-dioxo-1,3-diazinan-1-yl)phenyl]ethyl}-2,2-dimethylpiperazin-1-yl)pyridin-2-yl]amino}pyrimidin-4-yl)-2-methylphenyl]ethyl}-1,2,4-oxadiazole-5-carboxamide] | 31
Cc1cc(-c2cc(Nc3ccc(N4CCN(CCc5ccc(N6CCC(=O)NC6=O)cc5)CC4)cn3)ncn2)c(F)cc1[C@@H](C)NC(=O)c1nc(C(C)(C)C)no1 [Example 12, 3-tert-butyl-N-{(1R)-1-[4-(6-{[5-(4-{2-[4-(2,4-dioxo-1,3-diazinan-1-yl)phenyl]ethyl}piperazin-1-yl)pyridin-2-yl]amino}pyrimidin-4-yl)-5-fluoro-2-methylphenyl]ethyl}-1,2,4-oxadiazole-5-carboxamide] | 17
Cc1cc(-c2cc(Nc3ccc(N4CCN(CCc5ccc(N6CCC(=O)NC6=O)cc5)C[C@@H]4C(C)C)cn3)ncn2)ccc1[C@@H](C)NC(=O)c1nc(C(C)(C)C)no1 [Example 13, 3-tert-butyl-N-[(1R)-1-{4-[6-({5-[(2S)-4-{2-[4-(2,4-dioxo-1,3-diazinan-1-yl)phenyl]ethyl}-2-(propan-2-yl)piperazin-1-yl]pyridin-2-yl}amino)pyrimidin-4-yl]-2-methylphenyl}ethyl]-1,2,4-oxadiazole-5-carboxamide] | 26
C[C@@H](NC(=O)c1nc(C(C)(C)C)no1)c1ccc(-c2cc(Nc3ccc(N4CCN(CCc5ccc(N6CCC(=O)NC6=O)cc5)C[C@@H]4C)cn3)ncn2)cc1Cl [Example 14, 3-tert-butyl-N-[(1R)-1-{2-chloro-4-[6-({5-[(2S)-4-{2-[4-(2,4-dioxo-1,3-diazinan-1-yl)phenyl]ethyl}-2-methylpiperazin-1-yl]pyridin-2-yl}amino)pyrimidin-4-yl]phenyl}ethyl]-1,2,4-oxadiazole-5-carboxamide] | 16
Cc1cc(-c2cc(Nc3ccc(N4CCN(CCc5ccc(N6CCC(=O)NC6=O)cc5)C[C@@H]4C)cc3)ncn2)ccc1[C@@H](C)NC(=O)c1nc(C(C)(C)C)no1 [Example 18] | 25
Cc1cc(-c2cc(Nc3ccc(CCN4CCN(c5ccc(N6CCC(=O)NC6=O)cc5)CC4)cn3)ncn2)ccc1[C@@H](C)NC(=O)c1nc(C(C)(C)C)no1 [Example 19] | 51
